Values of other authors in patent US20240058323A1, “PHARMACEUTICAL COMPOSITION CONTAINING PYRROLOQUINOLINE QUINONE TRILITHIUM SALT NONAHYDRATE COMPOUND, CAPSULE, AND PREPARATION METHOD THEREFOR” (SHANGHAI RAISING PHARMACEUTICAL CO., LTD, priority 2020, published 2024).
Where a name gives a salt, the structure may show the parent alone.

Settings: crystalline nonahydrate API

- temperature above which water is rapidly and irreversibly lost: higher than 60 °C
SMILES: O=C(O)c1cc(C(=O)O)c2c(n1)C(=O)C(=O)c1cc(C(=O)O)[nH]c1-2 [4,5-dioxo-4,5-dihydro-1H-pyrrolo[2,3-f]quinoline-2,7,9-tricarboxylic acid lithium salt nonahydrate compound]
